Results published in patent publication US6290995A, “Plant drug for preventing cancer II” (priority 2000, dated 2001).

Experiments:
c-myb RNA = test: Inhibition of oncogene c-myb RNA in ML-1 cells (northern blot); type: cell-based; details: Homo sapiens, ML1, 10 ng/ml, P <0.01
Experimental: (§1) Cells were maintained in suspension culture in RPMI 1640 medium supplemented with 7.5% heat-inactivated FBS, Cells growth and viability were assayed by hemocytometer using trypan blue dye exclusion. RNA was isolated by the CsCl gradient modification. RNA pellets were washed twice by reprecipitation in ethanol and quantitated by absorbency at 260 nM. RNA analyzed by electrophoresis of 15 μg of RNA through 1.2% agarose formaldehyde gels followed by northern blot transfer to nitrocellulose.
(§2) Single-standard uniformly labeled DNA probes were prepared. Probe of c-myc was a 1.7 Kb cla-Eco RI restriction fragment containing the 3'exon region of human c-myc and probe of c-myb was 1.0 Kb myb-specific Bam HI fragment. Probes for n-ras contained DNA fragments using a modification of the PCR technique. Probes for myb, myc and n-ras were isolated by electrolution. The isolated fragments were labeled to high specific activity with [α^32 P]-dCTP (3000 ci/mmol). Prehybridization of the filter was performed. The hybridization mixer contained 50,000 cpm of probe. The probes were hybridized at 58° C. in 15 mM NaCl, 1.5 nM sodium citrate for 3 hours. After hybridization, they were exposed to XAR-5 film. Oncogene expression was quantitated by densitometer scanning of the autoradiography.

c-myc RNA = test: Inhibition of oncogene c-myc RNA in ML-1 cells (northern blot); type: cell-based; details: Homo sapiens, ML1, 10 ng/ml, P <0.01
Experimental: as §1, §2

n-ras RNA = test: Inhibition of oncogene n-ras RNA in ML-1 cells (northern blot); type: cell-based; details: Homo sapiens, ML1, 10 ng/ml, P <0.01
Experimental: as §1, §2

mouse epidermis = details: in words; cited from earlier work
[1] = system: advanced ovarian and breast cancer; details: clinical trials, late 1980s and early 1990s; cited from earlier work

Row | SMILES | inhibition at 0.01 µg/mL (c-myb RNA) [%] | inhibition at 0.01 µg/mL (c-myc RNA) [%] | inhibition at 0.01 µg/mL (n-ras RNA) [%] | effect on [3H] thymidine incorporation in mouse epidermis (mouse epidermis) | clinical activity against advanced ovarian and breast cancer [1]
1 | O=C(O)[C@H]1O[C@@H](Oc2cc3oc(-c4ccccc4)cc(=O)c3c(O)c2O)[C@H](O)[C@@H](O)[C@@H]1O [BA, Baicalin] | 24.4 ± 3 | 29.3 ± 3.4 | 20.6 ± 3 |  | 
2 | COc1ccc2cc3[n+](cc2c1OC)CCc1cc2c(cc1-3)OCO2 [BE, Berberine] | 52 ± 5.8 | 50.5 ± 6.1 | 30.2 ± 3.5 |  | 
3 | CCCCCCCCCCCCCC(=O)O[C@@H]1[C@@H](C)[C@@]2(O)[C@@H](C=C(CO)C[C@]3(O)C(=O)C(C)=C[C@@H]23)[C@@H]2C(C)(C)[C@]12OC(C)=O [TPA, tetradecanoyphorbol-13-acetate] |  |  |  | remarkable increase | 
4 | CC(=O)O[C@H]1C(=O)[C@@]2(C)[C@H]([C@H](OC(=O)c3ccccc3)[C@]3(O)C[C@H](OC(=O)[C@H](O)[C@@H](NC(=O)c4ccccc4)c4ccccc4)C(C)=C1C3(C)C)[C@]1(OC(C)=O)CO[C@@H]1C[C@@H]2O [Taxol] |  |  |  |  | impressive clinical activities
